Experimental data from patent US11339130B1 (Blade Therapeutics, Inc., priority 2016, dated 2022).
pIC50: −log10 of the molar value. Read-outs that look alike come from different tables or passages of the source.

Key:
[1] = system: Calpain activity in SH-SY5Y cells (SBDP-150); assay: SH-SY5Y Spectrin western blot assay (SBDP-150 breakdown product, A23187-induced); format: cell-based; settings: Homo sapiens, SH-SY5Y cells, read-out: SH-SY5Y Spectrin IC50
Human Calpain 2/NS1 = target: T1, Human Calpain 2/NS1 (Homo sapiens, UniProt P17655); assay: Calpain inhibition continuous fluorescence (FRET) assay, Human Calpain 2/NS1; format: biochemical; settings: read-out: Human Calpain 2/NS1 IC50
T1 sequence (P17655 1-700): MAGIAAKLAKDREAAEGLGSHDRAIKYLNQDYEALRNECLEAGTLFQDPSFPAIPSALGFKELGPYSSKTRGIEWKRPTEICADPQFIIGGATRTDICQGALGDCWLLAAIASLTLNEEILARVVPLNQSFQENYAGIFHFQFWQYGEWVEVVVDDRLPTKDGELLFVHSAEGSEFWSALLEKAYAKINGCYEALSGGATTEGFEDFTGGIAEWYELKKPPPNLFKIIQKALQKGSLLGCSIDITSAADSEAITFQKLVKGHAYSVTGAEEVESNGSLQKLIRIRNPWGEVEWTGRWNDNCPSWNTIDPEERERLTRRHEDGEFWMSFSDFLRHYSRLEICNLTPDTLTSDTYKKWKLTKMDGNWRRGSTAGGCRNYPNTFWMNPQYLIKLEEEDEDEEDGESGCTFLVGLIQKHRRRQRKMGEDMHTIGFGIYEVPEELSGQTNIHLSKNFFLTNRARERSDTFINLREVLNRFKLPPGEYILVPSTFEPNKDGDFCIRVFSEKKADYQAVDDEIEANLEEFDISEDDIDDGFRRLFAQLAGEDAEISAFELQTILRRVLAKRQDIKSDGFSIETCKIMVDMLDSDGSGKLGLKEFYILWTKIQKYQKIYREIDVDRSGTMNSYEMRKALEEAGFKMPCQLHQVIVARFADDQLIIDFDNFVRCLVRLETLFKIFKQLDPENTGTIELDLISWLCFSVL
T1 sequence (P04632 1-268 partner): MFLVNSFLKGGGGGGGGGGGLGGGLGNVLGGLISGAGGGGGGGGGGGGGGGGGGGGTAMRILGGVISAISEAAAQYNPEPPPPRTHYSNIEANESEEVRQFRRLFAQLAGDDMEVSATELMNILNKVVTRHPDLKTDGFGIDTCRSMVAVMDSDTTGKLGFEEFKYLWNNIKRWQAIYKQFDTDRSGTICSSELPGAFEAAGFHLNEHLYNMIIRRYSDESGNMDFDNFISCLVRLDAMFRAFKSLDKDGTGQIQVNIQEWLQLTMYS
Summary of the method: (§1)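 Inhibitors were preincubated with calpain in 50 mM Tris pH 7.5, 100 mM NaCl, 1 mM DTT at 25C. Reactions were started with 5-FAM/QXL 520 FRET peptide substrate plus CaCl2 and read at 490/520 nm for 10 min. IC50s came from 4-parameter fits of slope rates (1-5 min).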

[2] = system: Calpain activity in SH-SY5Y cells; assay: SH-SY5Y + AMC fluorescence assay (Suc-LLVY-AMC substrate); format: cell-based; settings: read-out: SH-SY5Y + AMC IC50
Human Calpain 9/NS1 = target: T2, Human Calpain 9/NS1 (Homo sapiens, UniProt O14815); assay: Calpain inhibition continuous fluorescence (FRET) assay, Human Calpain 9/NS1; format: biochemical; settings: read-out: Human Calpain 9/NS1 IC50
T2 sequence (O14815 1-690): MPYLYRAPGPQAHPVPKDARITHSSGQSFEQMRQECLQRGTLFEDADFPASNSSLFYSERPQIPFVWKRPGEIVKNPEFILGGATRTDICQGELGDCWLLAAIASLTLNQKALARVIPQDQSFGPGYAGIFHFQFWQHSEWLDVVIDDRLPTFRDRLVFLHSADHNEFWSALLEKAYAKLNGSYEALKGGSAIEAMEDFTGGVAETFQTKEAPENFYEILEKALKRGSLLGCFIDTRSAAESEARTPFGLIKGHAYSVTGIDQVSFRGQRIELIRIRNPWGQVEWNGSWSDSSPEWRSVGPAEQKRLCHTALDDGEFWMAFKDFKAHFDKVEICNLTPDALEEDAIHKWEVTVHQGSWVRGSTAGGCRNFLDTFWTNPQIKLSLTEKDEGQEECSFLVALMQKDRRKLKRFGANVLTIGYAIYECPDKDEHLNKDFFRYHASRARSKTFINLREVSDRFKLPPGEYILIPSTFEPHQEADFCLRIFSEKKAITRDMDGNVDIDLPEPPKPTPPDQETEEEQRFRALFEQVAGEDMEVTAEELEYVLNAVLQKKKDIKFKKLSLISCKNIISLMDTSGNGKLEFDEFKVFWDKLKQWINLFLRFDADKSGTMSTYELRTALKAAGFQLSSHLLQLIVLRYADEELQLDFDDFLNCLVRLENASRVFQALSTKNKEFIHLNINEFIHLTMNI
T2 sequence (P04632 1-268 partner): T1 sequence (P04632 1-268 partner)
Summary of the method: as §1

Human Calpain 1/NS1 = target: T3, Human Calpain 1/NS1 (Homo sapiens, UniProt P07384); assay: Calpain inhibition continuous fluorescence (FRET) assay, Human Calpain 1/NS1; format: biochemical; settings: read-out: Human Calpain 1/NS1 IC50
T3 sequence (P07384 1-714): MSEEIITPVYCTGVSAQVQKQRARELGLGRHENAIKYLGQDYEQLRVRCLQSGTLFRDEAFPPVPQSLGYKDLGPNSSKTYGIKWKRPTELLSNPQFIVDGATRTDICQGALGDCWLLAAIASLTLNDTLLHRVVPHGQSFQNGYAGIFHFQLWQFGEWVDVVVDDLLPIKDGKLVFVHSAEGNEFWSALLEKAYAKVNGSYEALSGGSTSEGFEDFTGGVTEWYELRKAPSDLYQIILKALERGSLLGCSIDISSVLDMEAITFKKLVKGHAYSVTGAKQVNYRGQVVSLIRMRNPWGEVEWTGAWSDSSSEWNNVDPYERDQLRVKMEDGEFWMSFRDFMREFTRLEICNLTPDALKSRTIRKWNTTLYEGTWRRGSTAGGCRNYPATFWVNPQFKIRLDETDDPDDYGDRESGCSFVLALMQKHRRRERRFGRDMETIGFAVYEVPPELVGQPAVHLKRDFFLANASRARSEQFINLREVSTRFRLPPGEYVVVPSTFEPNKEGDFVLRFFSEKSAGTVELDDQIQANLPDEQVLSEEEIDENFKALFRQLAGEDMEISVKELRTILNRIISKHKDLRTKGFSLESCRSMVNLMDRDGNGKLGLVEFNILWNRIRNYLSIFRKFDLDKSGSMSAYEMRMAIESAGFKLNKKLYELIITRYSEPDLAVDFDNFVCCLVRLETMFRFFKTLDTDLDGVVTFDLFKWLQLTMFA
T3 sequence (P04632 1-268 partner): T1 sequence (P04632 1-268 partner)
Summary of the method: as §1

[3] = A23187-induced SBDP-150, western blot
[4] = Column D, A23187-induced SBDP-150

Structure (SMILES) | pIC50 [1, 3] | pIC50 (Human Calpain 2/NS1) | pIC50 [2] | pIC50 (Human Calpain 9/NS1) | pIC50 (Human Calpain 1/NS1) | pIC50 [1, 4] | pIC50 (Human Calpain 2/NS1; Column B) | pIC50 ([2]; Column E) | pIC50 (Human Calpain 9/NS1; Column C) | pIC50 (Human Calpain 1/NS1; Column A)
NC(=O)C(=O)C(Cc1ccccc1)NC(=O)c1nsnc1-c1cccnc1 (stereo not drawn) [Compound 377, N-(4-amino-3,4-dioxo-1-phenylbutan-2-yl)-4-(pyridin-3-yl)-1,2,5-thiadiazole-3-carboxamide] | > 5.00 | > 5.52 | 4.60 to 5.00 | > 5.52 | > 5.52 | – | – | – | – | –
O=CC(Cc1ccccc1)NC(=O)c1cn(C(F)F)nc1-c1ccccc1 (stereo not drawn) [Compound 396, 1-(difluoromethyl)-N-(1-oxo-3-phenylpropan-2-yl)-3-phenyl-1H-pyrazole-4-carboxamide] | > 5.00 | > 5.52 | 4.60 to 5.00 | > 5.52 | > 5.52 | – | – | – | – | –
Cc1cc(C(=O)N[C@@H](Cc2ccccc2)C(=O)C(N)=O)n(-c2ccnc(C)n2)n1 [Compound 244, (S)—N-(4-amino-3,4-dioxo-1-phenylbutan-2-yl)-3-methyl-1-(2-methylpyrimidin-4-yl)-1H-pyrazole-5-carboxamide] | – | – | – | – | – | < 4.60 | > 5.52 | > 5.00 | > 5.52 | > 5.52
NC(=O)C(=O)[C@H](Cc1ccccc1)NC(=O)c1oc(C(F)(F)F)nc1-c1ccccc1 [Compound 255, (S)—N-(4-amino-3,4-dioxo-1-phenylbutan-2-yl)-4-phenyl-2-(trifluoromethyl)oxazole-5-carboxamide] | – | – | – | – | – | > 5.00 | > 5.52 | > 5.00 | > 5.52 | > 5.52
Cc1cc(C(=O)N[C@@H](Cc2ccccc2)C(=O)C(N)=O)n(-c2ccnc(Cl)n2)n1 [Compound 246, (S)—N-(4-amino-3,4-dioxo-1-phenylbutan-2-yl)-1-(2-chloropyrimidin-4-yl)-3-methyl-1H-pyrazole-5-carboxamide] | – | – | – | – | – | 4.60 to 5.00 | > 5.52 | > 5.00 | > 5.52 | > 5.52
Cc1cc(C(=O)NC(Cc2ccccc2)C(=O)C(N)=O)c(-n2ccc(-c3ccccc3)n2)s1 (stereo not drawn) [Compound 320, N-(4-amino-3,4-dioxo-1-phenylbutan-2-yl)-5-methyl-2-(3-phenyl-1H-pyrazol-1-yl)thiophene-3-carboxamide] | 4.60 to 5.00 | > 5.52 | < 4.60 | > 5.52 | > 5.52 | – | – | – | – | –
CC(C)c1cccc(-c2nn(C)cc2C(=O)N[C@@H](Cc2ccccc2)C(=O)C(N)=O)c1 [Compound 180, (S)—N-(4-amino-3,4-dioxo-1-phenylbutan-2-yl)-3-(3-isopropylphenyl)-1-methyl-1H-pyrazole-4-carboxamide] | – | – | – | – | – | > 5.00 | > 5.52 | 4.60 to 5.00 | > 5.52 | > 5.52
NC(=O)C(=O)[C@H](Cc1ccccc1)NC(=O)c1conc1-c1ccc(F)cc1 [Compound 289, (S)—N-(4-amino-3,4-dioxo-1-phenylbutan-2-yl)-3-(4-fluorophenyl)isoxazole-4-carboxamide] | – | – | – | – | – | 4.60 to 5.00 | > 5.52 | < 4.60 | > 5.52 | > 5.52
Cn1cc(C(=O)NC(Cc2ccccc2)C(=O)C(N)=O)c(-c2ccc(F)cc2)n1 (stereo not drawn) [Compound 447, N-(4-amino-3,4-dioxo-1-phenylbutan-2-yl)-3-(4-fluorophenyl)-1-methyl-1H-pyrazole-4-carboxamide] | 4.60 to 5.00 | > 5.52 | 4.60 to 5.00 | > 5.52 | > 5.52 | – | – | – | – | –
COc1cccc(-c2nn(C)cc2C(=O)NC(Cc2ccccc2)C(=O)C(N)=O)c1 (stereo not drawn) [Compound 407, N-(4-amino-3,4-dioxo-1-phenylbutan-2-yl)-3-(3-methoxyphenyl)-1-methyl-1H-pyrazole-4-carboxamide] | 4.60 to 5.00 | > 5.52 | 4.60 to 5.00 | > 5.52 | > 5.52 | – | – | – | – | –
Cn1cc(C(=O)NC(Cc2ccccc2)C(=O)C(=O)NC2CC2)c(-c2ccccc2)n1 (stereo not drawn) [Compound 458, N-(4-(cyclopropylamino)-3,4-dioxo-1-phenylbutan-2-yl)-1-methyl-3-phenyl-1H-pyrazole-4-carboxamide] | 4.60 to 5.00 | > 5.52 | > 5.00 | > 5.52 | > 5.52 | – | – | – | – | –
COc1cncc(-c2nn(C)cc2C(=O)NC(Cc2ccccc2)C(=O)C(N)=O)c1 (stereo not drawn) [Compound 515, N-(4-amino-3,4-dioxo-1-phenylbutan-2-yl)-3-(5-methoxypyridin-3-yl)-1-methyl-1H-pyrazole-4-carboxamide] | < 4.60 | > 5.52 | < 4.60 | > 5.52 | > 5.52 | – | – | – | – | –
Cc1cc(C(=O)NC(Cc2ccccc2)C(=O)C(N)=O)n(-c2ccnc(C(C)C)n2)n1 (stereo not drawn) [Compound 431, N-(4-amino-3,4-dioxo-1-phenylbutan-2-yl)-1-(2-isopropylpyrimidin-4-yl)-3-methyl-1H-pyrazole-5-carboxamide] | < 4.60 | > 5.52 | > 5.00 | > 5.52 | > 5.52 | – | – | – | – | –
NC(=O)C(=O)C(Cc1ccccc1)NC(=O)c1nsnc1-c1ccncn1 (stereo not drawn) [Compound 374, N-(4-amino-3,4-dioxo-1-phenylbutan-2-yl)-4-(pyrimidin-4-yl)-1,2,5-thiadiazole-3-carboxamide] | > 5.00 | > 5.52 | > 5.00 | > 5.52 | > 5.52 | – | – | – | – | –
O=C(NC1CC1)C(=O)C(Cc1ccccc1)NC(=O)c1cnoc1-c1ccccc1 (stereo not drawn) [Compound 461, N-(4-(cyclopropylamino)-3,4-dioxo-1-phenylbutan-2-yl)-5-phenylisoxazole-4-carboxamide] | > 5.00 | > 5.52 | < 4.60 | > 5.52 | > 5.52 | – | – | – | – | –
